# Like-named read-outs stand apart in the source and are kept apart here.
# Key:
# [1] = test system: WM9 melanoma cells; experiment: Induction of apoptosis and cell death by PSVue 643 staining in WM9 melanoma cells; assay type: cell-based, human; conditions: WM9, 72 h
# Experimental: Adherent melanoma cells were harvested with 0.05% Trypsin-EDTA and were washed once with 1×DPBS. Cells were labeled with CellTrace™ Violet according to the manufacturer's protocol and were allowed to adhere to tissue culture plates overnight following the drug treatment. […] Cells were then immediately subjected to FACS analysis using a BD LSR II flow cytometer and at least 5,000 cells per sample were acquired.
# Cell suspensions were kept in the dark at room temperature for 5 min. 0.2 ml 1×PBS supplemented with 10% FBS was added to each cell suspension and cells were immediately analyzed by BD LSRII.
# Briefly, autophagic flux was assessed by FACS analysis of WM9 cells expressing the mCherry-eGFPLC3B construct that were transfected with the indicated siRNAs targeting autophagy and ER stress response and treated for 72 h with DMSO or the combination of PLX4720 at 10 μM and PD0325901 at 1 μM. The data represent the average of 2 biological replicates. […] Autophagic flux was assessed by FACS analysis of WM9 cells expressing the mCherry-eGFPLC3B construct treated for 72 h with Gamitrinib at 1 μM or Spautin-1 at 10 μM in combination with PLX4720 at 10 μM/PD0325901 at 1 μM. Cells treated with DMSO were used as the control for setting up the gate.
# [2] = test system: BRAFV600E, VEGFR2, PDGFRB, c-KIT; conditions: cited from earlier work
# [3] = test system: CCLE melanoma cell lines with BRAFV600 mutations; conditions: MitoB high vs low subgroups, two sample t-test; cited from earlier work
# [4] = test system: BRAF(V600E), BRAF(wild type), c-RAF, VEGFR2, PDGFR, CSF1R, RET, c-KIT, SRC, STE20; conditions: range over several intracellular kinases; cited from earlier work
# [5] = test system: autophagic flux; experiment: Autophagic flux in WM9 cells expressing mCherry-eGFP-LC3B; assay type: cell-based, human; conditions: WM9, 72 h, Gamitrinib 1 μM or Spautin-1 10 μM combined with PLX4720 10 μM/PD0325901 1 μM
# Experimental: WM9 cells stably expressing pLVO-Puro-mCherry-eGFP-LC3 were analyzed with a BD LSR II flow cytometer. Fluorescence of mCherry and eGFP was recorded to derive the ratio of mCherryheight over eGFP-height. This ratio indicates the autophagic flux.
# Briefly, autophagic flux was assessed by FACS analysis of WM9 cells expressing the mCherry-eGFPLC3B construct that were transfected with the indicated siRNAs targeting autophagy and ER stress response and treated for 72 h with DMSO or the combination of PLX4720 at 10 μM and PD0325901 at 1 μM. The data represent the average of 2 biological replicates. Induction of apoptosis and cell death was assessed by PSVue 643 staining in WM9 cells expressing the mCherry-eGFP-LC3B construct transfected with the indicated siRNAs targeting autophagy and ER stress response and treated for 72 h with DMSO or the combination of PLX4720 at 10 μM and PD0325901 at 1 μM. Autophagic flux was assessed by FACS analysis of WM9 cells expressing the mCherry-eGFPLC3B construct treated for 72 h with Gamitrinib at 1 μM or Spautin-1 at 10 μM in combination with PLX4720 at 10 μM/PD0325901 at 1 μM. Cells treated with DMSO were used as the control for setting up the gate. Induction of apoptosis and cell death was assessed by PSVue 643 staining in WM9 cells treated for 72 h with Gamitrinib at 1 μM or Spautin-1 at 10 μM in combination with PLX4720 at 10 μM/PD0325901 at 1 μM. […]
# [6] = test system: MitoBiogenesis; conditions: Malme-3M and COLO829, 8 h; public gene expression microarray data; cited from earlier work
# [7] = test system: 1205Lu melanoma xenograft; experiment: Tumor volume of 1205Lu melanoma xenografts; assay type: in vivo, mice; conditions: 1205Lu xenografts
# [8] = test system: mitochondrial respiratory chain complex subunits; experiment: Expression of mitochondrial respiratory chain complex subunits in WM9 cells (qRT-PCR, RPPA, immunoblot); assay type: cell-based, human; conditions: qRT-PCR
# Experimental: One μg total mRNA was reverse transcribed using a Maxima First Strand cDNA Synthesis Kit for qRT-PCR (Thermo Fisher). Fast SYBR® Green Master Mix (Life Technologies) was used with cDNA template and primers to evaluate the expression of target genes and GAPDH. Primers used were purchased from Integrated DNA Technologies. Amplifications were performed using an Applied Biosystems® 7500 Real-Time PCR System (Life Technologies). All experiments were performed in triplicate. Expression ratios of controls were normalized to 1. Please see Extended Experimental Procedures for the list of PCR primer sequences. The raw data of gene expression microarrays generated from Illumina Chips were normalized, background-corrected and summarized using the R package “lumi” (Du et al., 2008). […] To reduce false positives, the unexpressed probes were removed. The R package “limma” (Smyth, 2004, 2005) was employed for gene differential expression analysis, followed by multiple test correction by the Benjamini and Hochberg procedure (Benjamini and Hochberg, 1995). […] We also conducted GSEA as previously reported (Subramanian et al., 2005). For GSEA, we analyzed gene sets obtained from the Molecular Signatures Database (broadinstitute.org/gsea/msigdb/). The same differential expression analysis method was applied to RPPA data. Cells were washed with ice-cold PBS containing 100 μM Na3VO4 and scraped off culture dishes. After centrifugation, cell pellets were lysed in buffer containing 10 mM Tris-HCl, pH 7.8, 150 mM NaCl, 1 mM EDTA, 1% Nonidet P-40, 1 mM Na3VO4 and protease inhibitors (Roche complete protease inhibitor tablets). Lysates were cleared by micro-centrifugation and protein concentrations were determined with Protein Assay Dye Reagent Concentrate (Bio-Rad). For western blots, 25 μg of each lysate were run on 15-well 10% or 12% SDS-PAGE gels and transferred onto nitrocellulose membranes using a dye fast Trans-BlotR Turbo™ transfer system (Bio-Rad). Blots were blocked in SEA BLOCK Blocking Buffer (Thermo Scientific) diluted with 1×TBS at 1:1 ratio at room temperature for 1 h, incubated overnight with primary antibody at 4° C., stained with secondary antibodies conjugated to IRDye® Infrared Dyes (LI-COR Biosciences) and then visualized using an Odyssey flatbed scanner (LI-COR Biosciences).
# [9] = test system: MitoBiogenesis; experiment: Expression of 18 MitoBiogenesis genes in melanoma cells (microarray, qRT-PCR, immunoblot); assay type: cell-based, human; conditions: for expression of MitoBiogenesis: qRT-PCR, 72 h
# Experimental: One μg total mRNA was reverse transcribed using a Maxima First Strand cDNA Synthesis Kit for qRT-PCR (Thermo Fisher). Fast SYBR® Green Master Mix (Life Technologies) was used with cDNA template and primers to evaluate the expression of target genes and GAPDH. Primers used were purchased from Integrated DNA Technologies. Amplifications were performed using an Applied Biosystems® 7500 Real-Time PCR System (Life Technologies). All experiments were performed in triplicate. Expression ratios of controls were normalized to 1. Please see Extended Experimental Procedures for the list of PCR primer sequences. Access of Gene Expression Microarray Data and TCGA Melanoma Patients' RNA-seq Data Time-course Illumina gene expression microarray data of WM9 melanoma cells were deposited at the NCBI Gene Expression Omnibus (GEO) (ncbi.nlm.nih.gov/geo/) under the accession number GSE58721. Normalized CCLE gene expression microarray data were directly downloaded from Broad CCLE (broadinstitute.org/ccle). Gene expression microarray data of A375 and SK-MEL-28 melanoma cells were downloaded from GEO under accession numbers GSE42872 and GSE37441, respectively. Gene expression microarray data of Malme-3M and COLO829 melanoma cells were downloaded from GEO under the accession number GSE51113. Normalized RNA-seq data of TCGA melanoma patients were downloaded from TCGA Data Portal (https://tcga-data.nci.nih.gov/tcga/). Cells were washed with ice-cold PBS containing 100 μM Na3VO4 and scraped off culture dishes. After centrifugation, cell pellets were lysed in buffer containing 10 mM Tris-HCl, pH 7.8, 150 mM NaCl, 1 mM EDTA, 1% Nonidet P-40, 1 mM Na3VO4 and protease inhibitors (Roche complete protease inhibitor tablets). Lysates were cleared by micro-centrifugation and protein concentrations were determined with Protein Assay Dye Reagent Concentrate (Bio-Rad). For western blots, 25 μg of each lysate were run on 15-well 10% or 12% SDS-PAGE gels and transferred onto nitrocellulose membranes using a dye fast Trans-BlotR Turbo™ transfer system (Bio-Rad). […]
# [10] = Table 6, mice treated 15 days, PLX4720 200 mg/kg diet, 2,4-DNP 20 mg/kg QD p.o., alone or combined
smiles,measurement,setting,value
"CC(=O)N[C@@H](CS)C(=O)O [NAC, N-acetyl-L-cysteine]",apoptosis and cell death induced by the combination of Gamitrinib and MAPK pathway inhibitors,[1]; NAC 5 mM,markedly suppress apoptosis and cell death
Cn1c(Nc2ccc(C(F)(F)F)cc2)nc2cc(Oc3ccnc(-c4ncc(C(F)(F)F)[nH]4)c3)ccc21 [RAF265],potency in cell-based assays,[2]; BRAFV600E and VEGFR2,most potent
same,potency in cell-based assays,[2]; PDGFRB and c-KIT,less active
same,drug IC50 of cell lines with higher basal level of MitoBiogenesis versus lower,[3],significantly lower drug IC50
"Fc1ccc(CNc2ncnc3ccc(F)cc23)cc1 [Spautin-1, reference compound]",induction of apoptosis and cell death,[1]; Spautin-1 10 μM combined with PLX4720 10 μM/PD0325901 1 μM,not able to trigger a significant induction of apoptosis and cell death
same,autophagic flux,[5],effectively decreased the autophagic flux
O=C(NOC[C@H](O)CO)c1ccc(F)c(F)c1Nc1ccc(I)cc1F [PD0325901],expression of MitoBiogenesis,[6],inhibited
same,drug IC50 of cell lines with higher basal level of MitoBiogenesis versus lower,[3],significantly lower drug IC50
"O=[N+]([O-])c1ccc(O)c([N+](=O)[O-])c1 [2,4-DNP, 2,4-dinitrophenol]",tumor growth,"[7]; 2,4-DNP alone or with PLX4720, combination compared to PLX4720 alone",failed to inhibit tumor growth
same,% T/C (percentages of tumor volumes),[7]; [10],101.96%
"N=C(N)NC(=N)NCCc1ccccc1 [Phenformin, 1-phenethylbiguanide]","apoptosis and cell death, compared with other inhibitors of the drug screen","[1]; titrated doses combined with MAPK pathway inhibitors (PLX4720 10 μM, PD0325901 1 μM)",greater increase in apoptosis and cell death
CCCS(=O)(=O)Nc1ccc(F)c(C(=O)c2c[nH]c3ncc(Cl)cc23)c1F [PLX4720],expression of 30 mitochondria respiratory chain complex subunits,"[8]; WM9, 72 h",substantially up-regulated
same,expression of 5 representative mitochondrial respiratory chain complex subunits,"[8]; WM9, PLX4720 10 μM up to 120 h",up-regulated
same,% T/C (percentages of tumor volumes),[7]; [10],51.41%
same,% T/C (percentages of tumor volumes),"[7]; Table 7, 17 days, PLX4720 200 mg/kg diet",56.88%
same,expression of MitoBiogenesis,[9]; A375 cells,decreased the expression of MitoBiogenesis
same,expression of MitoBiogenesis (protein),"[9]; WM9 cells, PLX4720 10 μM, 72 h time course, immunoblotting",up-regulated in a time-dependent manner
same,expression of MitoBiogenesis,[9]; WM793 or WM9 cells,up-regulated MitoBiogenesis
same,drug IC50 of cell lines with higher basal level of MitoBiogenesis versus lower,[3],significantly lower drug IC50

# — US20240207202A1, “COMBINATION THERAPIES TARGETING MITOCHONDRIAL BIOGENESIS FOR CANCER THERAPY” (The Wistar Institute of Anatomy and Biology, priority 2015, published 2024)
